Reference: ChEMBL document CHEMBL3045412, “Antifungal activity and fungal metabolism of steroidal glycosides of Easter lily (Lilium longiflorum Thunb.) by the plant pathogenic fungus, Botrytis cinerea” (2011)
Active and inactive are the calls of the source. The rule behind the calls is not given here.

Assays:
[1] = test system: Botrytis cinerea; test: Antifungal activity against Botryotinia fuckeliana assessed as radial mycelia growth inhibition at 25 degC at 100 umol relative to control (crop protection Lilium longiflorum Thunb.); assay type: functional
[2] = test system: Botrytis cinerea; test: Antifungal activity against Botryotinia fuckeliana assessed as radial mycelia growth inhibition at 25 degC at 1 to 100 umol relative to control (crop protection Lilium longiflorum Thunb.); assay type: functional, organism-based

In the case of `CC(=O)OC[C@H]1O[C@@H](O[C@H]2[C@H](O)[C@@H](O[C@@H]3O[C@@H](C)[C@H](O)[C@@H](O)[C@H]3O)[C@H](O[C@H]3CC[C@@]4(C)C(=CC[C@H]5[C@@H]6C[C@@H]7O[C@]8(CC[C@@H](C)CN8)[C@@H](C)[C@@H]7[C@@]6(C)CC[C@@H]54)C3)O[C@@H]2CO)[C@H](O)[C@@H](O)[C@@H]1O`, the “growth inhibition (GI)” value [1] is reported as 49%.
With `C[C@H](CC[C@@]1(O)O[C@H]2C[C@H]3[C@@H]4CC=C5C[C@@H](O[C@@H]6O[C@H](CO)[C@@H](O[C@@H]7O[C@H](CO)[C@@H](O)[C@H](O)[C@H]7O)[C@H](O)[C@H]6O[C@@H]6O[C@@H](C)[C@H](O)[C@@H](O)[C@H]6O)CC[C@]5(C)[C@H]4CC[C@]3(C)[C@H]2[C@@H]1C)CO[C@@H]1O[C@H](CO)[C@@H](O)[C@H](O)[C@H]1O` the “growth inhibition (GI)” value [1] was 25%.
For `C[C@H](CC[C@@]1(O)O[C@H]2C[C@H]3[C@@H]4CC=C5C[C@@H](O[C@@H]6O[C@H](CO)[C@@H](O)[C@H](O[C@@H]7OC[C@H](O)[C@H](O)[C@H]7O)[C@H]6O[C@@H]6O[C@@H](C)[C@H](O)[C@@H](O)[C@H]6O)CC[C@]5(C)[C@H]4CC[C@]3(C)[C@H]2[C@@H]1C)CO[C@@H]1O[C@H](CO)[C@@H](O)[C@H](O)[C@H]1O`, the “growth inhibition (GI)” value [1] was 25%.
In the case of `C[C@H](CC[C@@]1(O)O[C@H]2C[C@H]3[C@@H]4CC=C5C[C@@H](O[C@@H]6O[C@H](CO)[C@@H](O)[C@H](O[C@@H]7OC[C@H](O)[C@@H](O)[C@@H]7O)[C@H]6O[C@@H]6O[C@@H](C)[C@H](O)[C@@H](O)[C@H]6O)CC[C@]5(C)[C@H]4CC[C@]3(C)[C@H]2[C@@H]1C)CO[C@@H]1O[C@H](CO)[C@@H](O)[C@H](O)[C@H]1O`, the “growth inhibition (GI)” value [1] is reported as 25%.
For `C[C@@H]1CC[C@@]2(NC1)O[C@H]1C[C@H]3[C@@H]4CC=C5C[C@@H](O[C@@H]6O[C@H](CO)[C@@H](O[C@@H]7O[C@H](CO)[C@@H](O)[C@H](O)[C@H]7O)[C@H](O)[C@H]6O[C@@H]6O[C@@H](C)[C@H](O)[C@@H](O)[C@H]6O)CC[C@]5(C)[C@H]4CC[C@]3(C)[C@H]1[C@@H]2C`, the “growth inhibition (GI)” value [2] was “Active”.
